Entries after “also recorded” stand apart in the source; their conditions may differ.
Experiments:
MDA-MB-231 cells = conditions: cited from earlier work
MDA-MB-231 tumor growth = assay: Tumor growth assay, MDA-MB-231 cells on the chorio-allantoic membrane (CAM) in chicken eggs; type: in vivo, human; conditions: treated daily for 8 days
Method: To experimentally evaluate their functional effects in vivo, the inventors used MDA-MB-231 cells and the well-established chorio-allantoic membrane (CAM) assay in chicken eggs, to quantitatively measure tumor growth and metastasis. An inoculum of 1×10^6 MDA-MB-231 cells was added onto the CAM of each egg (day E9) and then eggs were randomized into groups. On day E10, tumors were detectable and they were then treated daily for 8 days with vehicle alone (1% DMSO in PBS) or the three Mitoriboscin compounds. In parallel, the inventors also evaluated the activity of another mitochondrial inhibitor, namely butene-1,4-bis-triphenyl-phosphonium (Bis-TPP), which was identified as an inhibitor of 3D-mammosphere formation in MCF7 cells, with an IC-50 of less than 0.5 μM.
After 8 days of drug administration (on day E18), all tumors were weighed, and the lower CAM was collected to evaluate the number of metastatic cells, as analyzed by qPCR with specific primers for Human Alu sequences.
(§1) a) Preparation of Chicken Embryos. Fertilized White Leghorn eggs were incubated at 37.5° C. with 50% relative humidity for 9 days. At that moment (E9), the chorioallantoic membrane (CAM) was dropped down by drilling a small hole through the eggshell into the air sac, and a 1 cm^2 window was cut in the eggshell above the CAM (19-23).
b) Amplification and Grafting of Tumor Cells. […]

MDA-MB-231 metastasis = assay: Metastasis assay, MDA-MB-231 cells in the CAM assay (qPCR for Human Alu sequences in lower CAM); type: in vivo
Method: MDA-MB-231 cells and the CAM assay in chicken eggs were used to quantitatively measure spontaneous tumor mestastasis. An inoculum of 1×10^6 MDA-MB-231 cells was added onto the CAM of each egg (on day E9) and then eggs were then randomized into groups. On day E10, tumors were detectable and they were then treated daily for 8 days with vehicle alone (1% DMSO in PBS) or the four mitochondrial inhibitors. After 8 days of drug administration, the lower CAM was collected to evaluate the number of metastatic cells, as analyzed by qPCR with specific primers for Human Alu sequences. […] The same procedure may be used to evaluate the anti-metastasis and anti-recurrence effects of other mitochondrial inhibitors.
as §1
b) Amplification and Grafting of Tumor Cells. The MDA-MB-231 tumor cell line was cultivated in DMEM medium supplemented with 10% FBS and 1% penicillin/streptomycin. On day E9, cells were detached with trypsin, washed with complete medium and suspended in graft medium. An inoculum of 1×10^6 cells was added onto the CAM of each egg (E9) and then eggs were randomized into groups (19-23).
d) Metastasis Assays. On day E18, a 1 cm^2 portion of the lower CAM was collected to evaluate the number of metastatic cells in 8 samples per group (n=8). Genomic DNA was extracted from the CAM (commercial kit) and analyzed by qPCR with specific primers for Human Alu sequences. Calculation of Cq for each sample, mean Cq and relative amounts of metastases for each group are directly managed by the Bio-Rad® CFX Maestro software. A one-way ANOVA analysis with post-tests was performed on all the data (19-23).

MCF7 cells = conditions: cited from earlier work
chick embryo = assay: Embryo tolerability assay (chick embryo toxicity); type: in vivo; conditions: for Alive / Dead: number of embryos
Method: a) Preparation of Chicken Embryos. […] At that moment (E9), the chorioallantoic membrane (CAM) was dropped down by drilling a small hole through the eggshell into the air sac, and a 1 cm^2 window was cut in the eggshell above the CAM (19-23).
e) Embryo Tolerability Assay: Before each administration, the treatment tolerability was evaluated by scoring the number of dead embryos.

[1] = test system: CSCs in cell lines derived from 8 different cancer types; conditions: cell lines from 8 cancer types incl. MCF7, T47D, MDA-MB-231, MCF10.DCIS.COM; cited from earlier work

SMILES: O[C@@H]1[C@H](NCc2ccccc2)CCC[C@H]1Oc1ccccc1Oc1ccc(Cl)cc1 [23/G4]
- blocking of cell migration, active concentration range (MDA-MB-231 cells): low micro-molar range
- effect on MDA-MB-231 tumor growth (MDA-MB-231 tumor growth): minor effects
- effectiveness in CAM assay (MDA-MB-231 metastasis; concentration of 0.5 mM): minimally effective
- inhibition of metastasis (MDA-MB-231 metastasis; higher concentrations 0.75 mM, 1 mM, 2 mM, CAM assay): 70-75%
- inhibition of 3D-mammosphere formation, active concentration range (MCF7 cells): low micro-molar range
- % Alive (chick embryo; 0.5 mM): 70%
- % Dead (chick embryo; 0.5 mM): 30%
- Alive (chick embryo; 0.5 mM): 7
- Dead (chick embryo; 0.5 mM): 3
- % Alive (chick embryo; 0.75 mM): 71.43%
- % Dead (chick embryo; 0.75 mM): 28.57%
- Alive (chick embryo; 0.75 mM): 10
- Dead (chick embryo; 0.75 mM): 4
- % Alive (chick embryo; 1 mM): 80%
- % Dead (chick embryo; 1 mM): 20%
- Alive (chick embryo; 1 mM): 12
- Dead (chick embryo; 1 mM): 3
- % Alive (chick embryo; 2 mM): 66.67%
- % Dead (chick embryo; 2 mM): 33.33%
- Alive (chick embryo; 2 mM): 10
- Dead (chick embryo; 2 mM): 5

SMILES: CC[C@H]1OC(=O)[C@H](C)[C@@H](O[C@H]2C[C@@](C)(OC)[C@@H](O)[C@H](C)O2)[C@H](C)[C@@H](O[C@@H]2O[C@H](C)C[C@H](N(C)C)[C@H]2O)[C@](C)(O)C[C@@H](C)CN(C)[C@H](C)[C@@H](O)[C@]1(C)O [Azithromycin]
- inhibition of anchorage-independent propagation of CSCs [1]: effectively inhibit

SMILES: C(=CC[P+](c1ccccc1)(c1ccccc1)c1ccccc1)C[P+](c1ccccc1)(c1ccccc1)c1ccccc1 [Bis-TPP, butene-1,4-bis-triphenyl-phosphonium]
- effect on MDA-MB-231 cancer metastasis (MDA-MB-231 metastasis; CAM assay in chicken eggs, treated daily for 8 days): functional prevention of cancer metastasis; also recorded: significantly prevented metastasis
- IC50 (MCF7 cells; read-out: IC-50, inhibition of 3D-mammosphere formation): < 500 nM
- % Alive (chick embryo; 0.5 mM): 58.33%
- % Dead (chick embryo; 0.5 mM): 41.67%
- Alive (chick embryo; 0.5 mM): 7
- Dead (chick embryo; 0.5 mM): 5

Source: patent US12728104B2, “Therapeutic methods for preventing tumor metastasis and tumor recurrence” (LUNELLA BIOTECH, INC., priority 2020, dated 2026)
